{
  "source": "patent US7576113B2",
  "about": "“Use of (E)-5-(4-chlorbenzyliden)-2,2-dimethyl-1-(1H-1,2,4-triazol-1-ylmethyl) cyclopentanol for combating rust attacks on soya plants” (BASF Aktiengesellschaft, priority 2004, dated 2009)",
  "type_in_all_cases": "in vivo",
  "key": {"[1]": {"system": "Phakopsora pachyrhizi", "experiment": "Curative treatment of diseased soybean plants, field experiments", "procedure": "In field experiments, different varieties of soybean plants whose leaves were already infested with Phakopsora pachyrhizi were treated with an aqueous triticonazole preparation using equipment conventionally used under practice conditions. The application rates were from 20 to 200 g/ha. 25 days after the treatment, the disease level on the untreated, but infested, leaves had developed to such an extent that it covered 50% of the leaf area. In the treated plants, in contrast, Phakopsora pachyrhizi disease had only reached a maximum of 25%."}, "[2]": {"system": "Phakopsora pachyrhizi", "experiment": "Protective treatment of soybean plants, field experiments", "procedure": "In field experiments, different varieties of soybean plants were treated with an aqueous triticonazole preparation. The application rates amounted to 20 to 200 g/ha. Thereafter, the plants were inoculated with Phakopsora pachyrhizi. 25 days after the treatment, the disease level on the untreated, but infested, leaves had developed to such an extent that it covered 50% of the leaf area. In the treated plants, in contrast, Phakopsora pachyrhizi disease had only reached a maximum of 25%."}, "[3]": {"system": "Phakopsora pachyrhizi", "experiment": "Seed treatment of soybean c.v. Embrapa 48, rust disease of leaf areas", "conditions": "seed treatment 12.5, 25, 50, 100 and 250 g per 100 kg of seed, all cases, after 50 days; untreated at least 50%", "procedure": "Seed of soybean plants c.v. “Embrapa 48” were treated with a composition suitable for seed treatment, comprising triticonazole as active substance, at application rates in the range of from 12.5 g, 25 g, 50 g, 100 g and 250 g of triticonazole per 100 kg of seed. Thereafter, the seed was sown. The soybean plants thus grown were then inoculated with Phakopsora pachyrhizi. After 50 days, the level of rust disease of the leaf areas was determined. The disease level in the plants from untreated seed was at least 50%, whereas the disease level of the leaf area in plants from treated seed was less than 25% in all cases."}, "[4]": {"system": "Phakopsora pachyrhizi", "experiment": "Protective activity against soybean rust via seed treatment, field experiment in Brazil", "conditions": "cultivar IAC 8.2, 60 DAT, untreated 40", "procedure": "A defined amound of a commercial ready-to-used formulation of Triticonazole (suspension concentrate, concentration of active ingredient 200 g/l), corresponding to the desired application (a.r.) rate of 5, 15, 30 und 50 g ai/100 kg soybean was diluted with water to a total volume of 1 Ltr./100 kg Soybean.\nSoybean seeds of the cultivar “IAC 8.2” were treated in a commercial device for dressing seeds with the thus prepared aqueous suspension of triticonazole and then seeded in a field experiment in Brazil. The leaves of the soybean plants thus grown were inoculated at an appropriate growing stage with a spore suspension of soybean rust (Phakopsora pachyrhizi). Thereafter the plants were kept wet for 6-8 h overnight by means of a finely dripping sprinkling device. During this time the spores germinated and their germ tubes penetrated into the leaf tissue. 60 days after treatment (60 DAT) or seeding, respectively, the extent of rust formation on the leaves of the infected plants was determinated."}, "[5]": {"system": "Phakopsora pachyrhizi", "experiment": "Curative activity against soybean rust via spray application, potted seedlings in greenhouse", "conditions": "3 days after inoculation, cultivar Hutcheson, untreated 80", "procedure": "A commercial ready-to-used formulation of Triticonazole (suspension concentrate, concentration of active ingredient 200 g/l) was diluted with water to the active ingredient concentraten (act.conc.) given in Table 2.\nLeaves of potted soybean seedlings of the cultivar “Hutcheson” were inoculated with a suspension of spores of soybean rust (Phakopsora pachyrhizi). The pots were placed in a chamber with high atmospheric humidity (90 to 95%) at 22 to 24° C. for 24 hours. During this time, the spores germinated and the germ tubes penetrated into the leaf tissue. After 3 days, the infected plants were sprayed to runoff point with an aqueous suspension having the concentration of active compound as given in table 2. The suspensions or emulsions were prepared as described above. After the spray coating was dry, the test plants were cultivated in a greenhouse at temperatures between 22 and 24° C. and at 90% relative humidity for 17 days. The extent of the rust development on the leaves was then determined."}},
  "data": [
    {"compound": "CC1(C)CC/C(=C\\c2ccc(Cl)cc2)C1(O)Cn1cncn1", "note": "(centres unmarked) [triticonazole, (E)-5-(4-chlorobenzylidene)-2,2-dimethyl-1-(1H-1,2,4-triazol-1-ylmethyl)cyclopentanol]", "values": [
      {"measurement": "yield in comparison with the untreated control", "setting": "[1]; 20 to 200 g/ha, field", "value": "markedly improved"},
      {"measurement": "Phakopsora pachyrhizi disease level (leaf area covered)", "setting": "[1]; aqueous preparation 20 to 200 g/ha, 25 days after treatment, different soybean varieties, untreated 50%", "value": "≤ 25", "unit": "%"},
      {"measurement": "yield in comparison with the untreated control", "setting": "[2]; 20 to 200 g/ha, field", "value": "markedly improved"},
      {"measurement": "Phakopsora pachyrhizi disease level (leaf area covered)", "setting": "[2]; aqueous preparation 20 to 200 g/ha, inoculated after treatment, 25 days after treatment, untreated 50%", "value": "≤ 25", "unit": "%"},
      {"measurement": "disease level of the leaf area", "setting": "[3]", "value": "less than 25%"},
      {"measurement": "% infected leaf area (60 DAT)", "setting": "[4]; seed treatment a.r. 5 g/100 kg", "value": 23, "unit": "%"},
      {"measurement": "% infected leaf area (60 DAT)", "setting": "[4]; seed treatment a.r. 15 g/100 kg", "value": 11, "unit": "%"},
      {"measurement": "% infected leaf area (60 DAT)", "setting": "[4]; seed treatment a.r. 30 g/100 kg", "value": 9, "unit": "%"},
      {"measurement": "% infected leaf area (60 DAT)", "setting": "[4]; seed treatment a.r. 50 g/100 kg", "value": 3, "unit": "%"},
      {"measurement": "% infected leaf area (17 DAT)", "setting": "[5]; spray act. conc. 1 ppm", "value": 9, "unit": "%"},
      {"measurement": "% infected leaf area (17 DAT)", "setting": "[5]; spray act. conc. 4 ppm", "value": 1, "unit": "%"}
    ]}
  ]
}
